Assay type in all cases: cell-based
For one assay, the target named is T1, human VPAC1 receptor (Homo sapiens, UniProt P32241).
T1 construct: expressed in transfected cells; host or cells: CHO cells (G418 selection)
T1 sequence (P32241 31-457): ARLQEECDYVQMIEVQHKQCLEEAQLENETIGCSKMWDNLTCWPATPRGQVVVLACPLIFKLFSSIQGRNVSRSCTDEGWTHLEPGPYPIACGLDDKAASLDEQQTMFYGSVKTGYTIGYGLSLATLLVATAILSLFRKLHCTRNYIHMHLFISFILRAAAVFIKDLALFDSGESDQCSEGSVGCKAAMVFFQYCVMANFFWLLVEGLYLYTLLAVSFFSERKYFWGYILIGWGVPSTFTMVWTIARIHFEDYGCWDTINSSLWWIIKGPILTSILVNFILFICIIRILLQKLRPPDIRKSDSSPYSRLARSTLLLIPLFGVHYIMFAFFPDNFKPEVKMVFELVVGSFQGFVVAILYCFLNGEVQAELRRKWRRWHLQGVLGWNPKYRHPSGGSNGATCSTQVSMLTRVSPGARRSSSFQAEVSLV
Briefly: cAMP stimulation in CHO cells expressing VPAC1. The conditions noted are these: for Emax: CHO, read-out: VPAC1 Emax; for Receptor selectivity ratio VPAC1/PAC1: ratio of cAMP EC50 values; for EC50: read-out: VPAC1 EC50.

In another assay the target is T2, human PAC1 receptor (Homo sapiens, UniProt P41586).
T2 construct: expressed in transfected cells; host or cells: CHO cells (G418 selection)
T2 sequence (P41586 21-468): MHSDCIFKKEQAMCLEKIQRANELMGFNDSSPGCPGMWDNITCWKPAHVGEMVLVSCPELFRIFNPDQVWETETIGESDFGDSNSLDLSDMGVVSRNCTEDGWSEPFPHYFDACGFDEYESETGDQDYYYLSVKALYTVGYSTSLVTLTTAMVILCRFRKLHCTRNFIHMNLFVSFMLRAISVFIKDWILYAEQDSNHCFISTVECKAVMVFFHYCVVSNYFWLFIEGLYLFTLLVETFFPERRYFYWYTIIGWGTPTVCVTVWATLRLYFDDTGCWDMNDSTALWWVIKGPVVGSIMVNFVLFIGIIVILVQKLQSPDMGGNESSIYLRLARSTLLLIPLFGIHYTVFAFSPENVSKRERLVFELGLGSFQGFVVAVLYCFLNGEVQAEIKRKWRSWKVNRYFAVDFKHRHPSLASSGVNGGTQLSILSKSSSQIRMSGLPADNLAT
Briefly: cAMP stimulation in CHO cells expressing PAC1. Particulars: for Emax: CHO. In a few lines: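 Serum-starved CHO cells expressing human receptors were pre-treated 20 min with 500 μM IBMX, then exposed to agonist concentration curves for 10 min in 500 μM IBMX. cAMP quantified by competition with bovine PKA and ^3H-cAMP (1 h, room temperature), scintillation read.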

For the next assay, the target named is T3, human VPAC2 receptor (Homo sapiens, UniProt P41587).
T3 construct: expressed in transfected cells; host or cells: CHO cells (G418 selection)
T3 sequence (P41587 24-438): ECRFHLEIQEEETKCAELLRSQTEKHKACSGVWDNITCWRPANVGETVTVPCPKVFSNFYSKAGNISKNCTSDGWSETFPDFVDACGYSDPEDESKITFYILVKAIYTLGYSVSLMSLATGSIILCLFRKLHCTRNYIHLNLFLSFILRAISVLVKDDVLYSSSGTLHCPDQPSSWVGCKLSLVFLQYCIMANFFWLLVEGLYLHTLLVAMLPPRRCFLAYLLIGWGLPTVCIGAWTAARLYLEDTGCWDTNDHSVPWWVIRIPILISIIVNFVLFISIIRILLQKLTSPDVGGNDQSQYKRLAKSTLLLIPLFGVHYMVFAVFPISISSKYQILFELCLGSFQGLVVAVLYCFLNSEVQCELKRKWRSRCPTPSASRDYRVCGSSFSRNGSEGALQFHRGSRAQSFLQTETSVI
Briefly: cAMP stimulation in CHO cells expressing VPAC2. The conditions noted are these: for Emax: CHO; for Receptor selectivity ratio VPAC2/PAC1 / Receptor selectivity ratio VPAC2/VPAC1: ratio of cAMP EC50 values. As for the experimental part:
Briefly, human PAC1, VPAC1, and VPAC2 receptors expressed in CHO cells were used for all experiments. Cells were grown in 50:50 DMEM-F12 medium with 10% heat-inactivated fetal bovine serum, 1X penicillin-streptomycin supplement, and 500 μg/ml G418 (neomycin) to maintain selection (all from ThermoFisher) at 37°C with 5% CO2 atmosphere. For the cAMP assay, cells were seeded at 20,000 cells/well in a 96 well plate, recovered overnight, then serum starved for 4 h. The cells were then incubated with 500 μM IBMX for 20 min, followed by agonist concentration curves in 500 μM IBMX media for 10 min. The reaction was terminated, boiled, then collected, followed by competition with 7 μg of bovine protein kinase A (Sigma-Aldrich) and ∼1 pmol of ^3H-cAMP (PerkinElmer). The assay was incubated at room temp for 1 h, then collected onto GF/B filter plates and the data read using a MicroBeta2 scintillation counter (PerkinElmer).

Turning to `CCC[C@H](NC(=O)[C@H](CCC(N)=O)NC(=O)[C@H](CCCCN)NC(=O)[C@H](CCCNC(=N)N)NC(=O)[C@H](Cc1ccc(O)cc1)NC(=O)[C@H](CCCNC(=N)N)NC(=O)[C@H](CO)NC(=O)[C@H](Cc1ccc(O)cc1)NC(=O)[C@H](CO)NC(=O)[C@H](CC(=O)O)NC(=O)[C@@H](NC(=O)[C@H](Cc1ccccc1)NC(=O)[C@@H](NC(=O)CNC(=O)[C@H](CC(=O)O)NC(=O)[C@@H](CO)NC(=O)[C@@H](N)Cc1c[nH]cn1)C(C)(C)C)[C@@H](C)O)C(=O)N[C@@H](C)C(=O)N[C@H](C(=O)N[C@@H](CCCCN)C(=O)N[C@@H](CCCCN)C(=O)N[C@@H](Cc1ccc(O)cc1)C(=O)N[C@@H](CC(C)C)C(=O)N[C@@H](C)C(=O)N[C@@H](C)C(=O)N[C@H](C(=O)N[C@@H](CC(C)C)C(=O)N[C@@H](CO[C@@H]1O[C@H](CO)[C@@H](O)[C@H](O)[C@H]1O)C(N)=O)C(C)C)C(C)C` [CRA3015], at human VPAC1 receptor, the Emax – broadly, the size of the effect at its maximum, as opposed to the concentration needed – came out at 104%; the “Receptor selectivity ratio VPAC1/PAC1” value is recorded as 0.27; the concentration giving a half-maximal response (EC50) (usually the concentration giving half of the maximal effect) stood at 120 nM. At human PAC1 receptor, this molecule came in with an EC50 of 448 nM and a maximal effect (Emax) of 72%. Besides, at human VPAC2 receptor, the response was half-maximal at 866 nM (EC50), the Emax stood at 92%, the “Receptor selectivity ratio VPAC2/PAC1” value turned out to be 1.93 and the “Receptor selectivity ratio VPAC2/VPAC1” value worked out at 7.22.
Regarding `CCCC[C@H](NC(=O)CNC(=O)[C@H](CC(=O)O)NC(=O)[C@@H](CO)NC(=O)[C@@H](N)Cc1c[nH]cn1)C(=O)N[C@@H](Cc1ccccc1)C(=O)N[C@H](C(=O)N[C@@H](CC(=O)O)C(=O)N[C@@H](CO)C(=O)N[C@@H](Cc1ccc(O)cc1)C(=O)N[C@@H](CO)C(=O)N[C@@H](CCCNC(=N)N)C(=O)N[C@@H](Cc1ccc(O)cc1)C(=O)N[C@@H](CCCNC(=N)N)C(=O)N[C@@H](CCCCN)C(=O)N[C@@H](CCC(N)=O)C(=O)N[C@@H](CCC)C(=O)N[C@@H](C)C(=O)N[C@H](C(=O)N[C@@H](CCCCN)C(=O)N[C@@H](CCCCN)C(=O)N[C@@H](Cc1ccc(O)cc1)C(=O)N[C@@H](CC(C)C)C(=O)N[C@@H](C)C(=O)N[C@@H](C)C(=O)N[C@H](C(=O)N[C@@H](CC(C)C)C(=O)N[C@@H](CO[C@@H]1O[C@H](CO)[C@@H](O)[C@H](O)[C@H]1O)C(N)=O)C(C)C)C(C)C)[C@@H](C)O` [CRA3017], on human VPAC1 receptor, the Emax is 94%, the “Receptor selectivity ratio VPAC1/PAC1” value is 0.45 and the EC50 is 4.8 nM. Also, on human PAC1 receptor, it took 10.6 nM to reach a half-maximal effect (EC50) and the Emax was determined as 95%. Further, at human VPAC2 receptor, the 50% effective concentration (EC50) was determined as 189 nM, the Emax was 109%, the “Receptor selectivity ratio VPAC2/PAC1” value is reported as 17.83 and the “Receptor selectivity ratio VPAC2/VPAC1” value was found to be 39.38.
Regarding `CCCC[C@H](NC(=O)CN(C)C(=O)[C@H](CC(=O)O)NC(=O)[C@@H](CO)NC(=O)[C@@H](N)Cc1c[nH]cn1)C(=O)N[C@@H](Cc1ccccc1)C(=O)N[C@H](C(=O)N[C@@H](CC(=O)O)C(=O)N[C@@H](CO)C(=O)N[C@@H](Cc1ccc(O)cc1)C(=O)N[C@@H](CO)C(=O)N[C@@H](CCCNC(=N)N)C(=O)N[C@@H](Cc1ccc(O)cc1)C(=O)N[C@@H](CCCNC(=N)N)C(=O)N[C@@H](CCCCN)C(=O)N[C@@H](CCC(N)=O)C(=O)N[C@@H](CCC)C(=O)N[C@@H](C)C(=O)N[C@H](C(=O)N[C@@H](CCCCN)C(=O)N[C@@H](CCCCN)C(=O)N[C@@H](Cc1ccc(O)cc1)C(=O)N[C@@H](CC(C)C)C(=O)N[C@@H](C)C(=O)N[C@@H](C)C(=O)N[C@H](C(=O)N[C@@H](CC(C)C)C(=O)N[C@@H](CO[C@@H]1O[C@H](CO)[C@@H](O)[C@H](O)[C@H]1O)C(N)=O)C(C)C)C(C)C)[C@@H](C)O` [CRA3018], the results for the maximal response (Emax) on human VPAC1 receptor, on human PAC1 receptor and at human VPAC2 receptor were 104%, 85% and 112%, respectively.
On to `CCCC[C@@H](NC(=O)CNC(=O)[C@H](CC(=O)O)NC(=O)[C@@H](CO)NC(=O)[C@@H](N)Cc1c[nH]cn1)C(=O)N[C@@H](Cc1ccccc1)C(=O)N[C@H](C(=O)N[C@@H](CC(=O)O)C(=O)N[C@@H](CO)C(=O)N[C@@H](Cc1ccc(O)cc1)C(=O)N[C@@H](CO)C(=O)N[C@@H](CCCNC(=N)N)C(=O)N[C@@H](Cc1ccc(O)cc1)C(=O)N[C@@H](CCCNC(=N)N)C(=O)N[C@@H](CCCCN)C(=O)N[C@@H](CCC(N)=O)C(=O)N[C@@H](CCC)C(=O)N[C@@H](C)C(=O)N[C@H](C(=O)N[C@@H](CCCCN)C(=O)N[C@@H](CCCCN)C(=O)N[C@@H](Cc1ccc(O)cc1)C(=O)N[C@@H](CC(C)C)C(=O)N[C@@H](C)C(=O)N[C@@H](C)C(=O)N[C@H](C(=O)N[C@@H](CC(C)C)C(=O)N[C@@H](CO[C@@H]1O[C@H](CO)[C@@H](O)[C@H](O)[C@H]1O)C(N)=O)C(C)C)C(C)C)[C@@H](C)O` [CRA3019], for which, at human VPAC1 receptor, the maximal effect (Emax) was found to be 72%, the “Receptor selectivity ratio VPAC1/PAC1” value was found to be 0.77 and the concentration giving a half-maximal response (EC50) was 649 nM. On human PAC1 receptor, this molecule had an EC50 of 847 nM and a maximum response (Emax) of 65%. Besides, on human VPAC2 receptor, the 50% effective concentration (EC50) is more than 2500 nM and the maximal response (Emax) is 74%.
For the molecule `CCC[C@H](NC(=O)[C@H](CCC(N)=O)NC(=O)[C@H](CCCCN)NC(=O)[C@H](CCCNC(=N)N)NC(=O)[C@H](Cc1ccc(O)cc1)NC(=O)[C@H](CCCNC(=N)N)NC(=O)[C@H](CO)NC(=O)[C@H](Cc1ccc(O)cc1)NC(=O)[C@H](CO)NC(=O)[C@H](CC(=O)O)NC(=O)[C@@H](NC(=O)[C@H](Cc1ccccc1)NC(=O)[C@@H](NC(=O)[C@@H](C)NC(=O)[C@H](CC(=O)O)NC(=O)[C@@H](CO)NC(=O)[C@@H](N)Cc1c[nH]cn1)[C@@H](C)CC)[C@@H](C)O)C(=O)N[C@@H](C)C(=O)N[C@H](C(=O)N[C@@H](CCCCN)C(=O)N[C@@H](CCCCN)C(=O)N[C@@H](Cc1ccc(O)cc1)C(=O)N[C@@H](CC(C)C)C(=O)N[C@@H](C)C(=O)N[C@@H](C)C(=O)N[C@H](C(=O)N[C@@H](CC(C)C)C(=O)N[C@@H](CO[C@@H]1O[C@H](CO)[C@@H](O)[C@H](O)[C@H]1O)C(N)=O)C(C)C)C(C)C` [CRA3021], at human VPAC1 receptor, the maximum response (Emax) was 103%, the “Receptor selectivity ratio VPAC1/PAC1” value came to 1.17 and the concentration for a half-maximal effect (EC50) was 37.7 nM. On human PAC1 receptor, this molecule had an EC50 of 32.3 nM and an Emax of 90%. For the same molecule, at human VPAC2 receptor, the EC50 came to 517 nM, the Emax was found to be 74%, the “Receptor selectivity ratio VPAC2/PAC1” value is given as 16.01 and the “Receptor selectivity ratio VPAC2/VPAC1” value amounted to 13.71.
For `CCC[C@H](NC(=O)[C@H](CCC(N)=O)NC(=O)[C@H](CCCCN)NC(=O)[C@H](CCCNC(=N)N)NC(=O)[C@H](Cc1ccc(O)cc1)NC(=O)[C@H](CCCNC(=N)N)NC(=O)[C@H](CO)NC(=O)[C@H](Cc1ccc(O)cc1)NC(=O)[C@H](CO)NC(=O)[C@H](CC(=O)O)NC(=O)[C@@H](NC(=O)[C@H](Cc1ccccc1)NC(=O)[C@@H](NC(=O)CNC(=O)[C@H](CC(=O)O)NC(=O)[C@@H](CO)NC(=O)[C@@H](N)Cc1c[nH]cn1)[C@@H](C)CC)[C@@H](C)O)C(=O)N[C@@H](C)C(=O)N[C@H](C(=O)N[C@@H](CCCCN)C(=O)N[C@@H](CCCCN)C(=O)N[C@@H](Cc1ccc(O)cc1)C(=O)N[C@@H](CC(C)C)C(=O)N[C@@H](C)C(=O)N[C@@H](C)C(=O)N[C@H](C(=O)N[C@@H](CC(C)C)C(=O)N[C@@H](CO[C@@H]1O[C@H](CO)[C@@H](O[C@@H]2O[C@H](CO)[C@H](O)[C@H](O)[C@H]2O)[C@H](O)[C@H]1O)C(N)=O)C(C)C)C(C)C` [CRA 3000-Lac], the Emax at human VPAC1 receptor is 96%; on human PAC1 receptor it was 92%; on human VPAC2 receptor, 116%.

Values taken from publication PMC8887546, “Design and Synthesis of Brain Penetrant Glycopeptide Analogues of PACAP With Neuroprotective Potential for Traumatic Brain Injury and Parkinsonism” (Frontiers in drug discovery, 2022).
